One molecule from patent US11987568B2, “Allosteric inhibitor of WEE1 kinase” (H. LEE MOFFITT CANCER CENTER AND RESEARCH INSTITUTE, INC., priority 2018, dated 2024) can be followed below.

The nature of one data set: Solubility. It is filed as physicochemical. Here is the method:
ADME studies with 55152 (18-B3) and 367416 (16-G9): The solubility, microsome stability and plasma stability of these two compounds were also determined (Table 2).

In data set [1] the test system is histone H2B Tyr37-phopshorylation (pY37-H2B). Description: WEE1 epigenetic activity in cells: pY37-H2B immunoprecipitation/immunoblot. The class given is cell-based, human. Particulars: LNCaP cells. The text has this: FIGS. 2A-2B show identification of 3 distinct types of inhibitors. […] In addition, the lysates were also subjected to by immunoblotting with pY15-Cdc2 or actin antibodies (middle and bottom panels). […] The number vehicle treated cells were used as control and percent of surviving cells were plotted.
FIGS. 4A-4B show structures of ‘hits’ identified in WEE1 epigenetic inhibitor screen. […] The reaction mix was then subjected to immunoprecipitated with WEE1 antibodies, followed by immunoblotting with pTyr antibodies. […] In addition, the lysates were also subjected to immunoblotting with actin antibodies (bottom panel).
FIGS. 7A-7C show identification of WEIN-159 as a potent WEE1 epigenetic inhibitor. […] In addition, lysates were immunoprecipitated with pY37-H2B antibodies, followed by immunoblotting with H2B antibodies (middle panel). […] The lysates were also subjected to immunoblotting with pY15-Cdc2 antibodies and were immunoprecipitated with pY37-H2B antibodies, followed by immunoblotting with H2B antibodies (middle panels). In addition, the lysates were also subjected to immunoblotting with H2B antibodies (bottom panel). […] The lysates were also subjected to immunoblotting with pY15-Cdc2 antibodies and were immunoprecipitated with pY37-H2B antibodies, followed by immunoblotting with H2B antibodies (middle panels). In addition, the lysates were also subjected to immunoblotting with actin antibodies (bottom panel).
Identification of compounds with WEE1 epigenetic inhibitory role: 14 ‘hits’ that were identified in the screen are shown in FIG. 1. These compounds were further tested for their ability to inhibit WEE1 epigenetic activity. Prostate cancer derived LNCaP cells were treated with 3 uM of compounds for 48 hours. Cells were harvested, lysates were prepared, and WEE1 epigenetic activity was detected by determining histone H2B Tyr37-phopshorylation (pY37-H2B). Lysates were also assessed for WEE1 cell cycle inhibitory activity by determining Cdc2 Tyr15-phosphorylation (pY15-Cdc2). […] These are named as ‘Cell Cycle’ inhibitors. […] These compounds are the ‘Epigenetic’ inhibitors.

For data set [2], the system named is Cdc2 Tyr15-phosphorylation (pY15-Cdc2). Description: WEE1 cell cycle inhibitory activity in cells: pY15-Cdc2 immunoblot. The settings on record: LNCaP cells, 3 uM, 48 hours (FIG. 2A). The class given is cell-based, human. The text has this:
FIGS. 2A-2B show identification of 3 distinct types of inhibitors. […] In addition, the lysates were also subjected to by immunoblotting with […]-Cdc2 or actin antibodies (middle and bottom panels). […] The number vehicle treated cells were used as control and percent of surviving cells were plotted. […] In addition, the lysates were also subjected to immunoblotting with actin antibodies (bottom panel). Identification of compounds with WEE1 epigenetic inhibitory role: 14 'hits' that were identified in the screen are shown in FIG. 1. These compounds were further tested for their ability to inhibit WEE1 epigenetic activity. Prostate cancer derived LNCaP cells were treated with 3 uM of compounds for 48 hours. […] Lysates were also assessed for WEE1 cell cycle inhibitory activity by determining Cdc2 Tyr15-phosphorylation ([…]-Cdc2). […] These are named as 'Cell Cycle' inhibitors. […] These compounds are the 'Epigenetic' inhibitors.
(In general: A western blot detects proteins with antibodies after separation by electrophoresis.)

≈ marks a conversion by molar mass, not a printed value. Where two headings read alike, the source gives them in different places.

For the molecule `Nc1ccc(NC(=O)c2ccc(C(=O)Nc3ccc(N)cc3)cc2)cc1` [SG5-061, N^1,N^4-bis(4-aminophenyl)terephthalamide], the solubility in “Solubility” (aqueous buffer, pH 5.0, read-out: Solubility (ug/mL) pH 5.0) worked out at 0.13 µg/mL (≈ 0.375 µM); in the data set “Solubility” (pH 6.2, aqueous buffer, read-out: Solubility (ug/mL) pH 6.2), 0.22 µg/mL (≈ 0.635 µM); in the data set “Solubility” (pH 7.4, aqueous buffer, read-out: Solubility (ug/mL) pH 7.4) it was 0.15 µg/mL (≈ 0.433 µM). In data set [1] (3 uM, 48 hours (FIG. 2A)), the “H2B Tyr37-phosphorylation (pY37-H2B)” value was “specifically suppressed H2B Tyr37-phosphotylation”. Also, the “H2B Tyr37-phosphorylation” value in data set [1] (10 μM, 12 hours (FIG. 4B)) is listed as “complete loss of H2B Tyr37-phosphorylation”. Further, in data set [2], the “Cdc2 Tyr15-phosphorylation (pY15-Cdc2)” value is on record as “did not affect Cdc2 Tyr15-phosphotylation”.
